{"source": "paper PMC3306502", "about": "(Cancer research, 2012)", "key": {"LNCaP/AR tumors": {"tested_on": "LNCaP/AR tumors", "experiment": "Ki67 IHC and TUNEL-staining of LNCaP/AR tumor-tissue from castrate mice", "details": "10 mg/kg/day, 25d"}, "[1]": {"tested_on": "LNCaP/AR(cs) xenograft tumors", "experiment": "LNCaP/AR", "details": "for tumors with >50% regression (volume): 10 mg/kg/day daily-gavage"}, "prostate and epididymis": {"tested_on": "prostate and epididymis", "details": "10 mg/kg/day for 28 days"}, "LNCaP/AR(cs) xenografts": {"tested_on": "LNCaP/AR(cs) xenografts", "experiment": "LNCaP/AR", "details": "28d, intact (non-castrate) mice"}, "AR-regulated genes": {"tested_on": "AR-regulated genes", "experiment": "qRT-PCR analysis of AR-regulated genes in LNCaP/AR", "details": "absence of R1881; up to 10 μM"}, "VCaP cells": {"tested_on": "VCaP cells", "experiment": "VCaP proliferation assay", "details": "7d treatment; for VCaP proliferation, antagonist-mode: with 30pM R1881; for VCaP proliferation, agonist-mode: without R1881"}, "[2]": {"experiment": "steady-state plasma and tumor-tissue concentrations in LNCaP/AR", "details": "for Plasma C24hr / Tumor C24hr: 28d dosing, mean ± SD; for Plasma C24hr: 24h after final dose; for Tumor C24hr: LNCaP/AR(cs) xenograft tumor-tissue; for Kp: mouse, tumor, oral"}, "[3]": {"experiment": "steady-state plasma- and brain-tissue levels in mice", "details": "10 mg/kg/day; for Brain C24hr / Plasma C24hr: 28d daily-dosing; for Brain C24hr: 24h after final-dose; for Plasma C24hr: 24h after final-dose (brain study); for Kp: mouse, brain"}, "[4]": {"tested_on": "LNCaP/AR-luc xenograft tumors", "experiment": "luciferase-imaging of LNCaP/AR-luc xenograft tumors in castrate male mice", "details": "10 mg/kg/day oral, 17 days"}, "[5]": {"tested_on": "PC-3 prostate cancer cells", "experiment": "growth of AR-negative PC-3 cells"}, "AR": {"tested_on": "AR", "experiment": "AR binding-assay using MDA-MB-453 cell-extracts"}, "CRPC [6]": {"tested_on": "CRPC", "details": "chemotherapy-naïve and -treated CRPC patients; cited from earlier work"}, "CRPC [7]": {"tested_on": "CRPC", "details": "plus prednisone; CRPC patients previously treated with docetaxel; cited from earlier work"}}, "data": [{"smiles": "CNC(=O)c1ccc(N2C(=S)N(c3cnc(C#N)c(C(F)(F)F)c3)C(=O)C23CCC3)cc1F", "note": "[ARN-509]", "values": [{"measurement": "increase in apoptotic rate (TUNEL) versus vehicle", "setting": "LNCaP/AR tumors", "value": 10, "unit": "fold"}, {"measurement": "tumors with >50% regression (volume)", "setting": "[1]; day 28, castrate mice", "value": "8/10"}, {"measurement": "tumors no longer palpable", "setting": "[1]; 10 mg/kg/day, day 28, of 10 tumors", "value": 2}, {"measurement": "animals with >50% reduction in tumor-volume", "setting": "[1]; 100 mg/kg/day, day 28, castrate mice", "value": "13/19"}, {"measurement": "optimal biological dose (OBD: lowest dose yielding maximum efficacy)", "setting": "[1]; LNCaP/AR model", "value": "10–30 mg/kg/day"}, {"measurement": "apoptotic-rate in dog prostates (TUNEL-staining)", "setting": "prostate and epididymis", "value": "no change in apoptotic-rate"}, {"measurement": "epididymis histopathology / spermatozoa", "setting": "prostate and epididymis", "value": "contained minimal spermatozoa"}, {"measurement": "prostate histopathology", "setting": "prostate and epididymis", "value": "lack of glandular secretory activity"}, {"measurement": "reduction in epididymis weight", "setting": "prostate and epididymis; not statistically significant", "value": 1.7, "unit": "fold"}, {"measurement": "reduction in weight of dog prostates", "setting": "prostate and epididymis; p<0.05 vs vehicle", "value": 3, "unit": "fold"}, {"measurement": "anti-tumor effect", "setting": "LNCaP/AR(cs) xenografts; 10 mg/kg/day", "value": "largely confined to stabilization of tumor-growth"}, {"measurement": "animals with robust tumor-regression (>50% reduction in starting tumor volume)", "setting": "LNCaP/AR(cs) xenografts; 30 mg/kg/day", "value": "6/8"}, {"measurement": "agonist activity on AR-regulated gene expression", "setting": "AR-regulated genes", "value": "did not exhibit agonist activity"}, {"measurement": "VCaP proliferation, antagonist-mode", "setting": "VCaP cells", "value": "antagonized the proliferative effect of R1881"}, {"measurement": "VCaP proliferation, agonist-mode", "setting": "VCaP cells", "value": "fails to stimulate proliferation"}, {"measurement": "Plasma C24hr", "setting": "[2]; 1 mg/kg/day", "value": "0.425 ± 0.16", "unit": "µg/mL"}, {"measurement": "Tumor C24hr", "setting": "[2]; 1 mg/kg/day", "value": "0.991 ± 0.30", "unit": "µg/g"}, {"measurement": "Plasma C24hr", "setting": "[2]; 10 mg/kg/day", "value": "3.31 ± 0.98", "unit": "µg/mL"}, {"measurement": "Tumor C24hr", "setting": "[2]; 10 mg/kg/day", "value": "3.26 ± 0.82", "unit": "µg/g"}, {"measurement": "Kp", "setting": "[2]; 1 mg/kg/day", "value": "2.59 ± 0.11"}, {"measurement": "Kp", "setting": "[2]; 10 mg/kg/day", "value": "1.07 ± 0.44"}, {"measurement": "Brain C24hr", "setting": "[3]", "value": "0.479 ± 0.132", "unit": "µg/g"}, {"measurement": "Plasma C24hr", "setting": "[3]", "value": "1.64 ± 0.30", "unit": "µg/mL"}, {"measurement": "Kp", "setting": "[3]", "value": "0.293 ± 0.063"}, {"measurement": "oral bioavailability", "setting": "mouse pharmacokinetics", "value": "high"}, {"measurement": "plasma half-life", "setting": "mouse pharmacokinetics", "value": "long"}, {"measurement": "androgen-driven luciferase reporter-gene activity normalized to tumor volume, vs vehicle", "setting": "[4]", "value": "consistently reduced"}, {"measurement": "effect on growth of AR-negative PC-3 cells", "setting": "[5]", "value": "no significant effect on growth"}, {"measurement": "oral bioavailability", "setting": "dog pharmacokinetics", "value": "high"}, {"measurement": "plasma half-life", "setting": "dog pharmacokinetics", "value": "long"}, {"measurement": "AR binding in cell-extracts, ARN-509 vs bicalutamide", "setting": "AR", "value": "does not differentiate between ARN-509 and bicalutamide"}]}, {"smiles": "CNC(=O)c1ccc(N2C(=S)N(c3ccc(C#N)c(C(F)(F)F)c3)C(=O)C2(C)C)cc1F", "note": "[MDV3100, reference compound]", "values": [{"measurement": "animals with >50% reduction in tumor-volume", "setting": "[1]; 30 mg/kg/day, day 28, castrate mice", "value": "3 of 19"}, {"measurement": "animals with >50% reduction in tumor-volume", "setting": "[1]; mouse, in vivo", "value": "12/19"}, {"measurement": "optimal biological dose (OBD: lowest dose yielding maximum efficacy)", "setting": "[1]; mouse, in vivo", "value": "30–100 mg/kg/day"}, {"measurement": "agonist activity on AR-regulated gene expression", "setting": "AR-regulated genes", "value": "did not exhibit agonist activity"}, {"measurement": "Plasma C24hr", "setting": "[2]; 1 mg/kg/day", "value": "1.08 ± 0.26", "unit": "µg/mL"}, {"measurement": "Tumor C24hr", "setting": "[2]; 1 mg/kg/day", "value": "0.439 ± 0.12", "unit": "µg/g"}, {"measurement": "Plasma C24hr", "setting": "[2]; 10 mg/kg/day", "value": "11.0 ± 2.5", "unit": "µg/mL"}, {"measurement": "Tumor C24hr", "setting": "[2]; 10 mg/kg/day", "value": "3.39 ± 1.50", "unit": "µg/g"}, {"measurement": "Brain C24hr", "setting": "[3]", "value": "2.01 ± 0.83", "unit": "µg/g"}, {"measurement": "Plasma C24hr", "setting": "[3]", "value": "10.5 ± 2.3", "unit": "µg/mL"}, {"measurement": "Kp", "setting": "[3]", "value": "0.188 ± 0.044"}, {"measurement": "patients with significant serum-PSA responses (>50% decrease)", "setting": "CRPC [6]", "value": "> 50", "unit": "%"}]}, {"smiles": "CC(=O)O[C@H]1CC[C@@]2(C)C(=CC[C@@H]3[C@@H]2CC[C@]2(C)C(c4cccnc4)=CC[C@@H]32)C1", "note": "[abiraterone acetate]", "values": [{"measurement": "increase in overall survival over control (prednisone only)", "setting": "CRPC [7]", "value": 3.9, "unit": "months"}]}, {"smiles": "CC(O)(CS(=O)(=O)c1ccc(F)cc1)C(=O)Nc1ccc(C#N)c(C(F)(F)F)c1", "note": "(stereo not drawn) [bicalutamide, reference compound]", "values": [{"measurement": "tumors with >50% regression (volume)", "setting": "[1]; day 28, castrate mice", "value": "1/10"}, {"measurement": "agonist activity on AR-regulated gene expression", "setting": "AR-regulated genes", "value": "altered gene-expression consistent with its well-documented agonist activity"}, {"measurement": "VCaP proliferation, antagonist-mode", "setting": "VCaP cells", "value": "only partially antagonized the effects of R1881"}, {"measurement": "VCaP proliferation, agonist-mode", "setting": "VCaP cells", "value": "induced cell-proliferation in a dose-dependent manner"}]}]}
